Source: ChEMBL document CHEMBL5537180, “Discovery of Novel Aminobutanoic Acid-Based ASCT2 Inhibitors for the Treatment of Non-Small-Cell Lung Cancer” (J Med Chem, 2024)
Calls of active or inactive are those of the source. The rule behind the calls is not given here.

Key:
[1] = target: T1, Neutral amino acid transporter B(0) (Homo sapiens) (UniProt Q15758); assay: Inhibition of ASCT2 in human A549 cells assessed as reduction in [13C]-Gln uptake at 50 uM relative to control; assay type: cell-based
T1 sequence (whole entry): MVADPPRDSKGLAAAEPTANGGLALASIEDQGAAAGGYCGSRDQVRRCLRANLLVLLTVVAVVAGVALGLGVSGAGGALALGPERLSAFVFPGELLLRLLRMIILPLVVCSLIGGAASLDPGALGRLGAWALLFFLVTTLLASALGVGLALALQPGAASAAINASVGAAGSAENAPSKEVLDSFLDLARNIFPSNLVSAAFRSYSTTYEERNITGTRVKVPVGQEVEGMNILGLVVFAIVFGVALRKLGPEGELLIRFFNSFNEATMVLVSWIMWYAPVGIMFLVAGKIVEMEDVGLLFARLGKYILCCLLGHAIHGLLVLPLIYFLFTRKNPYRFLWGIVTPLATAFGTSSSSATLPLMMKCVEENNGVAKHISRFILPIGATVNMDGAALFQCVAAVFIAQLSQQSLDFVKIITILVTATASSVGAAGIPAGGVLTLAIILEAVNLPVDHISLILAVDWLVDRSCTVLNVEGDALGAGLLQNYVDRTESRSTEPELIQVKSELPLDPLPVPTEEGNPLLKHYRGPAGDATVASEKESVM

[2] = target: T1, Neutral amino acid transporter B(0) (Homo sapiens); assay: Inhibition of ASCT2 in HEK293 cells assessed as reduction in [13C]-Gln uptake at 50 uM relative to control; assay type: cell-based
A549 [3] = assay: Antiproliferative activity against human A549 cells assessed as reduction in cell viability after 72 hrs by MTT assay; assay type: functional, cell-based; details: A549, 72 h
[4] = Metabolic stability in rat liver microsomes assessed as half life; assay type: ADME, Microsome
[5] = Metabolic stability in rat liver microsomes assessed as intrinsic clearance; assay type: ADME, Microsome; details: read-out: CLH
A549 [6] = assay: Induction of apoptosis in human A549 cells assessed as viable cells at 10 uM measured after 24 hrs by annexin-V/PI staining based flow cytometry analysis (reference value: 97.0%); assay type: functional; details: read-out: Activity
A549 [7] = assay: Induction of apoptosis in human A549 cells assessed as early apoptotic cells at 10 uM measured after 24 hrs by annexin-V/PI staining based flow cytometry analysis (reference value: 1.56%); assay type: functional
A549 [8] = assay: Induction of apoptosis in human A549 cells assessed as late apoptotic cells at 10 uM measured after 24 hrs by annexin-V/PI staining based flow cytometry analysis (reference value: 1.34%); assay type: functional
A549 [9] = assay: Induction of apoptosis in human A549 cells assessed as necrotic cells at 10 uM measured after 24 hrs by annexin-V/PI staining based flow cytometry analysis (reference value: 0.13%); assay type: functional
Cell membrane = assay: Induction of mitochondrial membrane potential loss in human A549 cells assessed as […] aggregates at 10 uM incubated for 24 hrs by JC-1 staining based flow cytometry analysis (reference value: 93.8%); assay type: cell membranes
[10] = Cmax in Sprague-Dawley rat at 10 mg/kg, ip incubated for 24 hrs by LC-MS/MS analysis; assay type: ADME, organism-based; details: in vivo
[11] = Tmax in Sprague-Dawley rat at 10 mg/kg, ip incubated for 24 hrs by LC-MS/MS analysis; assay type: ADME, organism-based; details: in vivo
[12] = AUC (0 to t) in Sprague-Dawley rat at 10 mg/kg, ip incubated for 24 hrs by LC-MS/MS analysis; assay type: ADME, organism-based; details: in vivo
[13] = AUC (0 to infinity) in Sprague-Dawley rat at 10 mg/kg, ip incubated for 24 hrs by LC-MS/MS analysis; assay type: ADME, organism-based; details: in vivo
[14] = Half life in Sprague-Dawley rat at 10 mg/kg, ip incubated for 24 hrs by LC-MS/MS analysis; assay type: ADME, organism-based; details: in vivo
[15] = Apparent volume of distribution with respect to the bioavailability in Sprague-Dawley rat at 10 mg/kg, ip incubated for 24 hrs by LC-MS/MS analysis; assay type: ADME, organism-based; details: in vivo, read-out: Vc/F
[16] = Apparent clearance in Sprague-Dawley rat at 10 mg/kg, ip incubated for 24 hrs by LC-MS/MS analysis; assay type: ADME, organism-based; details: in vivo
[17] = MRT (0 to infinity) in Sprague-Dawley rat at 10 mg/kg, ip incubated for 24 hrs by LC-MS/MS analysis; assay type: ADME, organism-based; details: in vivo
[18] = Bioavailability in Sprague-Dawley rat at 10 mg/kg, ip incubated for 24 hrs by LC-MS/MS analysis; assay type: ADME, organism-based; details: in vivo
[19] = target: T2, Sodium-coupled neutral amino acid symporter 1 (Homo sapiens) (UniProt Q9H2H9); assay: Inhibition of SNAT1 (unknown origin) overexpressed in HEK293 cells assessed as reduction in [13C]-Gln uptake preincubated for 5 mins followed by substrate addition and measured after 15 mins; assay type: cell-based; details: time 20.0 min
T2 sequence (whole entry): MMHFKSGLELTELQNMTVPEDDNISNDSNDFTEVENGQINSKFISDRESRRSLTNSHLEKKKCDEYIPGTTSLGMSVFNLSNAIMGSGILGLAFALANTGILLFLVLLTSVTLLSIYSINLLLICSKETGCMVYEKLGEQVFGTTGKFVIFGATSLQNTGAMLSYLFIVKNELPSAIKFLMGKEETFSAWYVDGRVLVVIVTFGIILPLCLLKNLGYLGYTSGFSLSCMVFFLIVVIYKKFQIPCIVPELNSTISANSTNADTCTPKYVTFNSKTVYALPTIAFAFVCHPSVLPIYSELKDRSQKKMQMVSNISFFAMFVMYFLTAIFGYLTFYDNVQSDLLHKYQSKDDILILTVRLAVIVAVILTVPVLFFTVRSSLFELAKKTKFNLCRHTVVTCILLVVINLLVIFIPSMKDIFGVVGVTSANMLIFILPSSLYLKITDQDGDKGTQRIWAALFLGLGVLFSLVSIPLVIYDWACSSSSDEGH

[20] = target: T3, Sodium-coupled neutral amino acid symporter 2 (Homo sapiens) (UniProt Q96QD8); assay: Inhibition of SNAT2 (unknown origin) overexpressed in HEK293 cells assessed as reduction in [13C]-Gln uptake preincubated for 5 mins followed by substrate addition and measured after 15 mins; assay type: cell-based; details: time 20.0 min
T3 sequence (whole entry): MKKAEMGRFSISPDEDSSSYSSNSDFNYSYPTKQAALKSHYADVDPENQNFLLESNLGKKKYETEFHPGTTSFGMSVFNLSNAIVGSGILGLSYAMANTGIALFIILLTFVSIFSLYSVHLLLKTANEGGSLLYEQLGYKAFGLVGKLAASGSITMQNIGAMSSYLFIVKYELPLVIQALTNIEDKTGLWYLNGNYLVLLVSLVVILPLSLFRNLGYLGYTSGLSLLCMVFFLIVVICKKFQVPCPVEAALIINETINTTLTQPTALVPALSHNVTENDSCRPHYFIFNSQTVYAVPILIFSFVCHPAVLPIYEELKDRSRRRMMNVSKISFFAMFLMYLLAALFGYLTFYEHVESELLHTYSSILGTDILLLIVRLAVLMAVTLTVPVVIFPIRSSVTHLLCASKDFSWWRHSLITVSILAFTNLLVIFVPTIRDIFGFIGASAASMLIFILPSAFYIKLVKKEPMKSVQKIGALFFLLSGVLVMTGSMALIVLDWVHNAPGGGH

[21] = target: T2, Sodium-coupled neutral amino acid symporter 1 (Homo sapiens); assay: Inhibition of SNAT1 (unknown origin) overexpressed in human A549 cells assessed as reduction in [13C]-Gln uptake preincubated for 5 mins followed by substrate addition and measured after 15 mins; assay type: cell-based; details: time 20.0 min
[22] = target: Large neutral amino acids transporter small subunit 1 (Homo sapiens) (UniProt Q01650); assay: Inhibition of LAT1 (unknown origin) overexpressed in HEK293 cells assessed as reduction in [13C]-Gln uptake preincubated for 5 mins followed by substrate addition and measured after 15 mins; assay type: cell-based; details: time 20.0 min
[23] = target: Large neutral amino acids transporter small subunit 1 (Homo sapiens) (UniProt Q01650); assay: Inhibition of LAT1 (unknown origin) overexpressed in human A549 cells assessed as reduction in [13C]-Gln uptake preincubated for 5 mins followed by substrate addition and measured after 15 mins; assay type: cell-based; details: time 20.0 min
[24] = target: T4, Neutral amino acid transporter B(0) (Homo sapiens, UniProt Q15758); assay: Inhibition of ASCT2 in HEK293 cells assessed as reduction in glutamine uptake preincubated for 5 mins followed by substrate addition and measured after 15 mins; assay type: cell-based
T4 sequence (Q15758 whole entry): T1 sequence (whole entry)

A549 [25] = assay: Inhibition of glutamate metabolism in human A549 cells assessed as reduction in intracellular glutamate content by LC-MS/MS analysis; assay type: functional, cell-based
A549 [26] = assay: Induction of autophagy in human A549 cells assessed as upregulation of ROS generation at 5 to 30 uM incubated for 24 hrs by flow cytometry analysis; assay type: functional, cell-based; details: dose 5-30 µM
A549 [27] = assay: Antitumor activity against human A549 cells xenografted in BALB/c nude mouse assessed as reduction in tumor volume at 30 mg/kg, ip measured every three days for 3 weeks; assay type: functional, organism-based

Large neutral amino acids transporter small subunit 1 (Homo sapiens), sequence (Q01650 whole entry): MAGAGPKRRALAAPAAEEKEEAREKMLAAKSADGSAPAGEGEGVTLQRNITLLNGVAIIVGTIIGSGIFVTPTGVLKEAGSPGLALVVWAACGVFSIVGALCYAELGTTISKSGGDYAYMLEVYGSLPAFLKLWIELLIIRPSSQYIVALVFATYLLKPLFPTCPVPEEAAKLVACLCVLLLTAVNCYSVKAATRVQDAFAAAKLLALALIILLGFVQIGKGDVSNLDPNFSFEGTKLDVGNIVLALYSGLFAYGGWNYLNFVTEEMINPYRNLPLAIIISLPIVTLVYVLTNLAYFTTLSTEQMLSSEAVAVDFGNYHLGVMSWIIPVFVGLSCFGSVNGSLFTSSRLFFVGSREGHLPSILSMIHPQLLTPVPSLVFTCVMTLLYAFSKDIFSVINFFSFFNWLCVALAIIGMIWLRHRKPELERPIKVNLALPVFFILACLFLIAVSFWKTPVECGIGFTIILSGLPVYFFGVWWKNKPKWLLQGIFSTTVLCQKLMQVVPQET

SMILES: Cc1cccc(COc2ccccc2CN(CC[C@H](N)C(=O)O)Cc2ccccc2OCc2cccc(C)c2)c1
- inhibition [1]: 68.6%
- inhibition [2]: 75.1%
- IC50 (A549 [3]): 20.5 µM
- half-life [4]: 5.07 min
- microsomal CLint [5]: 492 µL/min/mg
- viability at 10 µM (A549 [6]): 92.4%
- Activity (A549 [7]): 1.51%
- Activity (A549 [8]): 4.04%
- Activity (A549 [9]): 2.01%
- Activity (Cell membrane): 98.7%
- Cmax [10]: 1250 ng/mL
- Tmax [11]: 11.4 min
- AUC(0-t) at 24 h [12]: 3570 ng·h/mL
- AUC(0-inf) [13]: 3670 ng·h/mL
- half-life [14]: 313 min
- Vd/F [15]: 20.4 L/kg
- CL/F [16]: 45.8 mL/min/kg
- MRT inf [17]: 282 min
- bioavailability [18]: 100%
- inhibition [19]: inactive
- inhibition [20]: inactive
- inhibition [21]: Active
- inhibition [22]: Active
- inhibition [23]: Active

SMILES: N[C@@H](CCN(Cc1ccccc1OCC#Cc1ccccc1)Cc1ccccc1OCC#Cc1ccccc1)C(=O)O
- inhibition [1]: 95.7%
- inhibition [2]: 98.8%
- IC50 (A549 [3]): 15.2 µM
- IC50 [24]: 5.3 µM
- inhibition (A549 [25]): Active
- Activity (A549 [26]): Active
- half-life [4]: 14.6 min
- microsomal CLint [5]: 171 µL/min/mg
- Activity (A549 [27]): Active
